Source: ChEMBL document CHEMBL1649257, “Rapid detection of a point mutation in the parC gene associated with decreased susceptibility to fluoroquinolones in Mycoplasma bovis” (2009)
Values after ≈ are worked out from the molar mass of the structure shown.

Experiments:
Format in all cases: functional
Mycoplasmopsis bovis [1] = assay: Antimicrobial activity against Mycoplasma bovis isolate 2E harboring GyrA 83Ser and ParC 84Asp mutant by broth microdilution method
Mycoplasmopsis bovis [2] = assay: Antimicrobial activity against Mycoplasma bovis isolate 523 harboring GyrA 83Phe and ParC 84Asn mutant by broth microdilution method
Mycoplasmopsis bovis [3] = assay: Antimicrobial activity against Mycoplasma bovis isolate K harboring GyrA 83Ser and ParC 84Asp mutant by broth microdilution method
Mycoplasmopsis bovis [4] = assay: Antimicrobial activity against Mycoplasma bovis isolate 1416 harboring GyrA 83Phe and ParC 84Asp mutant by broth microdilution method
Mycoplasmopsis bovis [5] = assay: Antimicrobial activity against Mycoplasma bovis isolate 476-2 harboring GyrA 83Ser and ParC 84Asp mutant by broth microdilution method
Mycoplasmopsis bovis [6] = assay: Antimicrobial activity against Mycoplasma bovis isolate 4554 harboring GyrA 83Ser and ParC 84Asp mutant by broth microdilution method
Mycoplasmopsis bovis [7] = assay: Antimicrobial activity against Mycoplasma bovis isolate 861 harboring GyrA 83Ser and ParC 84Asp mutant by broth microdilution method
Mycoplasmopsis bovis [8] = assay: Antimicrobial activity against Mycoplasma bovis isolate 4243 harboring GyrA 83Phe and ParC 84Asn mutant by broth microdilution method
Mycoplasmopsis bovis [9] = assay: Antimicrobial activity against Mycoplasma bovis isolate 3222 harboring GyrA 83Ser and ParC 84Asp mutant by broth microdilution method
Mycoplasmopsis bovis [10] = assay: Antimicrobial activity against Mycoplasma bovis isolate 170 harboring GyrA 83Ser and ParC 84Asp mutant by broth microdilution method
Mycoplasmopsis bovis [11] = assay: Antimicrobial activity against Mycoplasma bovis isolate 3036 harboring GyrA 83Phe and ParC 84Asp mutant by broth microdilution method
Mycoplasmopsis bovis [12] = assay: Antimicrobial activity against Mycoplasma bovis isolate 3179 harboring GyrA 83Phe and ParC 84Asp mutant by broth microdilution method
Mycoplasmopsis bovis [13] = assay: Antimicrobial activity against Mycoplasma bovis isolate 1972 harboring GyrA 83Phe and ParC 84Asn mutant by broth microdilution method
Mycoplasmopsis bovis [14] = assay: Antimicrobial activity against Mycoplasma bovis isolate 9771 harboring GyrA 83Phe and ParC 84Asn mutant by broth microdilution method
Mycoplasmopsis bovis [15] = assay: Antimicrobial activity against Mycoplasma bovis isolate 111-2 harboring GyrA 83Ser and ParC 84Asp mutant by broth microdilution method
Mycoplasmopsis bovis [16] = assay: Antimicrobial activity against Mycoplasma bovis isolate 6226 harboring GyrA 83Ser and ParC 84Asp mutant by broth microdilution method
Mycoplasmopsis bovis [17] = assay: Antimicrobial activity against Mycoplasma bovis isolate 8998 harboring GyrA 83Ser and ParC 84Asp mutant by broth microdilution method
Mycoplasmopsis bovis [18] = assay: Antimicrobial activity against Mycoplasma bovis isolate 2670 harboring GyrA 83Ser and ParC 84Asp mutant by broth microdilution method
Mycoplasmopsis bovis [19] = assay: Antimicrobial activity against Mycoplasma bovis isolate 1306 harboring GyrA 83Phe and ParC 84Asp mutant by broth microdilution method
Mycoplasmopsis bovis [20] = assay: Antimicrobial activity against Mycoplasma bovis isolate PG45 harboring GyrA 83Ser and ParC 84Asp mutant by broth microdilution method
Mycoplasmopsis bovis [21] = assay: Antimicrobial activity against Mycoplasma bovis isolate 2458 harboring GyrA 83Phe and ParC 84Asp mutant by broth microdilution method
Mycoplasmopsis bovis [22] = assay: Antimicrobial activity against Mycoplasma bovis isolate 9249 harboring GyrA 83Ser and ParC 84Asp mutant by broth microdilution method
Mycoplasmopsis bovis [23] = assay: Antimicrobial activity against Mycoplasma bovis isolate 2029 harboring GyrA 83Phe and ParC 84Asp mutant by broth microdilution method
Mycoplasmopsis bovis [24] = assay: Antimicrobial activity against Mycoplasma bovis isolate H harboring GyrA 83Ser and ParC 84Asp mutant by broth microdilution method
Mycoplasmopsis bovis [25] = assay: Antimicrobial activity against Mycoplasma bovis isolate 2D harboring GyrA 83Ser and ParC 84Asp mutant by broth microdilution method
Mycoplasmopsis bovis [26] = assay: Antimicrobial activity against Mycoplasma bovis isolate 330 harboring GyrA 83Ser and ParC 84Asp mutant by broth microdilution method
Mycoplasmopsis bovis [27] = assay: Antimicrobial activity against Mycoplasma bovis isolate 5180 harboring GyrA 83Ser and ParC 84Asp mutant by broth microdilution method
Mycoplasmopsis bovis [28] = assay: Antimicrobial activity against Mycoplasma bovis isolate 1665 harboring GyrA 83Phe and ParC 84Asn mutant by broth microdilution method
Mycoplasmopsis bovis [29] = assay: Antimicrobial activity against Mycoplasma bovis isolate 7043 harboring GyrA 83Phe and ParC 84Asp mutant by broth microdilution method
Mycoplasmopsis bovis [30] = assay: Antimicrobial activity against Mycoplasma bovis isolate 6099 harboring GyrA 83Ser and ParC 84Asp mutant by broth microdilution method
Mycoplasmopsis bovis [31] = assay: Antimicrobial activity against Mycoplasma bovis isolate 4879 harboring GyrA 83Phe and ParC 84Asn mutant by broth microdilution method
Mycoplasmopsis bovis [32] = assay: Antimicrobial activity against Mycoplasma bovis isolate 3374 harboring GyrA 83Phe and ParC 84Asp mutant by broth microdilution method
Mycoplasmopsis bovis [33] = assay: Antimicrobial activity against Mycoplasma bovis isolate 4241 harboring GyrA 83Phe and ParC 84Asn mutant by broth microdilution method
Mycoplasmopsis bovis [34] = assay: Antimicrobial activity against Mycoplasma bovis isolate 962 harboring GyrA 83Phe and ParC 84Asn mutant by broth microdilution method
Mycoplasmopsis bovis [35] = assay: Antimicrobial activity against Mycoplasma bovis isolate 4925 harboring GyrA 83Ser and ParC 84Asn mutant by broth microdilution method
Mycoplasmopsis bovis [36] = assay: Antimicrobial activity against Mycoplasma bovis isolate 8830 harboring GyrA 83Phe and ParC 84Asn mutant by broth microdilution method
Mycoplasmopsis bovis [37] = assay: Antimicrobial activity against Mycoplasma bovis isolate 3181 harboring GyrA 83Phe and ParC 84Asn mutant by broth microdilution method
Mycoplasmopsis bovis [38] = assay: Antimicrobial activity against Mycoplasma bovis isolate 5848 harboring GyrA 83Phe and ParC 84Asp mutant by broth microdilution method
Mycoplasmopsis bovis [39] = assay: Antimicrobial activity against Mycoplasma bovis isolate 9603 harboring GyrA 83Ser and ParC 84Asp mutant by broth microdilution method
Mycoplasmopsis bovis [40] = assay: Antimicrobial activity against Mycoplasma bovis isolate 8934 harboring GyrA 83Ser and ParC 84Asp mutant by broth microdilution method
Mycoplasmopsis bovis [41] = assay: Antimicrobial activity against Mycoplasma bovis isolate 7910 harboring GyrA 83Ser and ParC 84Asp mutant by broth microdilution method
Mycoplasmopsis bovis [42] = assay: Antimicrobial activity against Mycoplasma bovis isolate 2643 harboring GyrA 83Phe and ParC 84Asp mutant by broth microdilution method
Mycoplasmopsis bovis [43] = assay: Antimicrobial activity against Mycoplasma bovis isolate 77 harboring GyrA 83Phe and ParC 84Asp mutant by broth microdilution method

## CCN1CCN(c2cc3c(cc2F)c(=O)c(C(=O)O)cn3C2CC2)CC1 [ENROFLOXACIN]
Mycoplasmopsis bovis [1]
  MIC: 0.16 µg/mL (≈ 0.445 µM)
Mycoplasmopsis bovis [2]
  MIC: 2.5 µg/mL (≈ 6.96 µM)
Mycoplasmopsis bovis [3]
  MIC: 0.16 µg/mL (≈ 0.445 µM)
Mycoplasmopsis bovis [4]
  MIC: 0.32 µg/mL (≈ 0.89 µM)
Mycoplasmopsis bovis [5]
  MIC: 0.16 µg/mL (≈ 0.445 µM)
Mycoplasmopsis bovis [6]
  MIC: 0.16 µg/mL (≈ 0.445 µM)
Mycoplasmopsis bovis [7]
  MIC: 0.08 µg/mL (≈ 0.223 µM)
Mycoplasmopsis bovis [8]
  MIC: 2.5 µg/mL (≈ 6.96 µM)
Mycoplasmopsis bovis [9]
  MIC: 0.16 µg/mL (≈ 0.445 µM)
Mycoplasmopsis bovis [10]
  MIC: 0.63 µg/mL (≈ 1.75 µM)
Mycoplasmopsis bovis [11]
  MIC: 1.25 µg/mL (≈ 3.48 µM)
Mycoplasmopsis bovis [12]
  MIC: 0.63 µg/mL (≈ 1.75 µM)
Mycoplasmopsis bovis [13]
  MIC: 2.5 µg/mL (≈ 6.96 µM)
Mycoplasmopsis bovis [14]
  MIC: 5 µg/mL (≈ 13.9 µM)
Mycoplasmopsis bovis [15]
  MIC: 0.16 µg/mL (≈ 0.445 µM)
Mycoplasmopsis bovis [16]
  MIC: 0.32 µg/mL (≈ 0.89 µM)
Mycoplasmopsis bovis [17]
  MIC: 0.08 µg/mL (≈ 0.223 µM)
Mycoplasmopsis bovis [18]
  MIC: 0.08 µg/mL (≈ 0.223 µM)
Mycoplasmopsis bovis [19]
  MIC: 1.25 µg/mL (≈ 3.48 µM)
Mycoplasmopsis bovis [20]
  MIC: 0.16 µg/mL (≈ 0.445 µM)
Mycoplasmopsis bovis [21]
  MIC: 1.25 µg/mL (≈ 3.48 µM)
Mycoplasmopsis bovis [22]
  MIC: 0.16 µg/mL (≈ 0.445 µM)
Mycoplasmopsis bovis [23]
  MIC: 0.32 µg/mL (≈ 0.89 µM)
Mycoplasmopsis bovis [24]
  MIC: 0.16 µg/mL (≈ 0.445 µM)
Mycoplasmopsis bovis [25]
  MIC: 0.16 µg/mL (≈ 0.445 µM)
Mycoplasmopsis bovis [26]
  MIC: 0.08 µg/mL (≈ 0.223 µM)
Mycoplasmopsis bovis [27]
  MIC: 0.16 µg/mL (≈ 0.445 µM)
Mycoplasmopsis bovis [28]
  MIC: 2.5 µg/mL (≈ 6.96 µM)
Mycoplasmopsis bovis [29]
  MIC: 0.32 µg/mL (≈ 0.89 µM)
Mycoplasmopsis bovis [30]
  MIC: 0.16 µg/mL (≈ 0.445 µM)
Mycoplasmopsis bovis [31]
  MIC: 5 µg/mL (≈ 13.9 µM)
Mycoplasmopsis bovis [32]
  MIC: 1.25 µg/mL (≈ 3.48 µM)
Mycoplasmopsis bovis [33]
  MIC: 2.5 µg/mL (≈ 6.96 µM)
Mycoplasmopsis bovis [34]
  MIC: 5 µg/mL (≈ 13.9 µM)
Mycoplasmopsis bovis [35]
  MIC: 2.5 µg/mL (≈ 6.96 µM)
Mycoplasmopsis bovis [36]
  MIC: 5 µg/mL (≈ 13.9 µM)
Mycoplasmopsis bovis [37]
  MIC: 2.5 µg/mL (≈ 6.96 µM)
Mycoplasmopsis bovis [38]
  MIC: 1.25 µg/mL (≈ 3.48 µM)
Mycoplasmopsis bovis [39]
  MIC: 0.16 µg/mL (≈ 0.445 µM)
Mycoplasmopsis bovis [40]
  MIC: 0.32 µg/mL (≈ 0.89 µM)
Mycoplasmopsis bovis [41]
  MIC: 0.32 µg/mL (≈ 0.89 µM)
Mycoplasmopsis bovis [42]
  MIC: 1.25 µg/mL (≈ 3.48 µM)
Mycoplasmopsis bovis [43]
  MIC: 0.63 µg/mL (≈ 1.75 µM)
